As a reminder, the mortality is the share of the test organisms that died. A word on the LD50: it is the dose at which mortality reaches 50%. Lower therefore signals greater toxicity.

The first data set relates to Tetranychus urticae. Kind of data set: Effectiveness against Tetranychus urticae (Testing Example 4). The data set is classed as in vivo. To be noted: decrease rate grade, 500 ppm spray on kidney bean plant, 2nd day after spraying. The protocol: Testing Example 4: Effectiveness against Tetranychus urticae
A test compound was processed into an emulsifiable concentrate in accordance with the formulation of Example 6, and diluted with water (with Dyne®, spreading agent, as diluted 3000-fold) to prepare a 500 ppm aqueous solution. Ten female adults of Tetranychus urticae) were infected on the seedling of a kidney bean plant water-cultured in a polyethylene cup, and the cups were placed in a glass chamber (28° C.) for 24 hours, followed by spraying 20 ml of the aqueous solution on the kidney bean plant. After the sprayed cup was placed again in the glass chamber, the number of the adults and larvae living on the leaves was counted on the 2nd and 7th days after spraying. The test was repeated twice, and the test results are tabulated in Table 5 in terms of the efficacy grading as determined by calculating a decrease rate by the following equation:
Decrease rate (%)=[(number of mites tested-number of larvae living on the day of inspection)/(number of mites tested)]×100
In the case of `CCCSP(=S)(OCC)Oc1cnn(-c2ccccc2)c1` (stereo not drawn) [Compound No. 5, O-ethyl-O-(1-phenylpyrazol-4-yl)-S-n-propyl phosphorothiolothionate], the “Efficacy grading, 2nd day” value is 3 (Not less than 90).
`CCCSP(=O)(OCC)Oc1cnn(-c2ccc(Br)cc2)c1` (stereo not drawn) [Compound No. 9]: the “Efficacy grading, 2nd day” value is 3 (Not less than 90).
Still for that read-out and setting: next, `CCCSP(=O)(OCC)Oc1cnn(-c2ccc(Cl)cc2)c1` (stereo not drawn) [Compound No. 16, O-ethyl-O-[1-(4-chlorophenyl)pyrazol-4-yl]-S-n-propyl phosphorothiolate]: 3 (Not less than 90).
Same read-out and setting: then `CCCSP(=S)(OCC)Oc1cnn(-c2ccc(Cl)cc2)c1` (stereo not drawn) [Compound No. 17], with 3 (Not less than 90).
Still for that read-out and setting: next, `CCCSP(=O)(OCC)Oc1cn(-c2ccccc2)nc1C(=O)OCC` (stereo not drawn) [compound 7]: 3 (Not less than 90).
Regarding `CCCSP(=S)(OCC)Oc1cn(-c2ccccc2)nc1C(=O)OCC` (stereo not drawn) [compound 8], the “Efficacy grading, 2nd day” value was 3 (Not less than 90).
Consider `CCCSP(=S)(OCC)Oc1cnn(-c2ccc(Br)cc2)c1` (stereo not drawn) [compound 10], for which the “Efficacy grading, 2nd day” value was 3 (Not less than 90).
`CCOP(=S)(OCC)Oc1cnn(-c2ccccc2Cl)c1` [compound 11]: the “Efficacy grading, 2nd day” value was 3 (Not less than 90).
Consider `CCCSP(=O)(OCC)Oc1cnn(-c2cccc(Cl)c2)c1` (stereo not drawn) [compound 13], for which the “Efficacy grading, 2nd day” value is given as 3 (Not less than 90).
`CCCSP(=S)(OCC)Oc1cnn(-c2cccc(Cl)c2)c1` (stereo not drawn) [compound 14]: the “Efficacy grading, 2nd day” value is reported as 3 (Not less than 90).
Regarding `CCOP(=S)(OCC)Oc1cnn(-c2ccc(Cl)cc2)c1` [compound 15], the “Efficacy grading, 2nd day” value is given as 3 (Not less than 90).
Regarding `CCCSP(=O)(OCC)Oc1cnn(-c2ccc(F)cc2)c1` (stereo not drawn) [compound 18], the “Efficacy grading, 2nd day” value is reported as 3 (Not less than 90).
As for `CCCSP(=S)(OCC)Oc1cnn(-c2ccc(F)cc2)c1` (stereo not drawn) [compound 19], the “Efficacy grading, 2nd day” value is on record as 3 (Not less than 90).

The data set is the same for the next values; noted with them: decrease rate grade, 500 ppm spray on kidney bean plant, 7th day after spraying.
Regarding `CCCSP(=S)(OCC)Oc1cnn(-c2ccccc2)c1` (stereo not drawn) [Compound No. 5, O-ethyl-O-(1-phenylpyrazol-4-yl)-S-n-propyl phosphorothiolothionate], the “Efficacy grading, 7th day” value is given as 3 (Not less than 90).
`CCCSP(=O)(OCC)Oc1cnn(-c2ccc(Br)cc2)c1` (stereo not drawn) [Compound No. 9]: the “Efficacy grading, 7th day” value is 3 (Not less than 90).
On to `CCCSP(=O)(OCC)Oc1cnn(-c2ccc(Cl)cc2)c1` (stereo not drawn) [Compound No. 16, O-ethyl-O-[1-(4-chlorophenyl)pyrazol-4-yl]-S-n-propyl phosphorothiolate], for which the “Efficacy grading, 7th day” value was 3 (Not less than 90).
On to `CCCSP(=S)(OCC)Oc1cnn(-c2ccc(Cl)cc2)c1` (stereo not drawn) [Compound No. 17], for which the “Efficacy grading, 7th day” value is 3 (Not less than 90).
With `CCCSP(=O)(OCC)Oc1cn(-c2ccccc2)nc1C(=O)OCC` (stereo not drawn) [compound 7], the “Efficacy grading, 7th day” value is 3 (Not less than 90).
With `CCCSP(=S)(OCC)Oc1cn(-c2ccccc2)nc1C(=O)OCC` (stereo not drawn) [compound 8], the “Efficacy grading, 7th day” value is recorded as 0 (Not more than 20).
For the molecule `CCCSP(=S)(OCC)Oc1cnn(-c2ccc(Br)cc2)c1` (stereo not drawn) [compound 10], the “Efficacy grading, 7th day” value is 3 (Not less than 90).
Regarding `CCOP(=S)(OCC)Oc1cnn(-c2ccccc2Cl)c1` [compound 11], the “Efficacy grading, 7th day” value is 0 (Not more than 20).
Regarding `CCCSP(=O)(OCC)Oc1cnn(-c2cccc(Cl)c2)c1` (stereo not drawn) [compound 13], the “Efficacy grading, 7th day” value is 3 (Not less than 90).
For `CCCSP(=S)(OCC)Oc1cnn(-c2cccc(Cl)c2)c1` (stereo not drawn) [compound 14], the “Efficacy grading, 7th day” value was 0 (Not more than 20).
`CCOP(=S)(OCC)Oc1cnn(-c2ccc(Cl)cc2)c1` [compound 15]: the “Efficacy grading, 7th day” value was 0 (Not more than 20).
Take `CCCSP(=O)(OCC)Oc1cnn(-c2ccc(F)cc2)c1` (stereo not drawn) [compound 18]: the “Efficacy grading, 7th day” value is on record as 3 (Not less than 90).
Turning to `CCCSP(=S)(OCC)Oc1cnn(-c2ccc(F)cc2)c1` (stereo not drawn) [compound 19], the “Efficacy grading, 7th day” value was 3 (Not less than 90).

In a further data set the test system is Spodoptera litura. Kind of data set: Effectiveness against Spodoptera litura (Testing Example 2). The data set is classed as in vivo. The note with it: second-instar larvae, 500 ppm spray on soybean, 28° C., 24 hours. How it is done: Testing Example 2: Effectiveness against Spodoptera litura
Twenty milliliters of a 500 ppm, water-diluted solution (with Dyne® Takeda Chem. Ind. Ltd., spreading agent, as diluted 3000-fold) of the test compound (the emulsifiable concentrate of Example 6) was sprayed on grown seedlings (10 days after germination) of soybean plant water-cultured in a polyethylene cup by the use of a spray gun (nozzle pressure of 1 kg/cm^2 gauge) in a spraying chamber. 2 hours after spraying, two main leaves of soybean plant were cut off and were placed into two cups (6 cm in diameter and 4 cm in depth), respectively, and ten second-instar larvae of Spodoptera litura were liberated. The cups were left in the room (28° C.) for 24 hours, and the dead larvae were counted.
Consider `CCCSP(=S)(OCC)Oc1cnn(-c2ccccc2)c1` (stereo not drawn) [Compound No. 5, O-ethyl-O-(1-phenylpyrazol-4-yl)-S-n-propyl phosphorothiolothionate], for which the mortality at 500 ppm is 100%.
For the molecule `CCCSP(=O)(OCC)Oc1cnn(-c2ccc(Br)cc2)c1` (stereo not drawn) [Compound No. 9], the mortality at 500 ppm was determined as 100%.
`CCCSP(=O)(OCC)Oc1cnn(-c2ccc(Cl)cc2)c1` (stereo not drawn) [Compound No. 16, O-ethyl-O-[1-(4-chlorophenyl)pyrazol-4-yl]-S-n-propyl phosphorothiolate] registered a mortality at 500 ppm of 100%.
On the same count and under the same terms, then `CCCSP(=S)(OCC)Oc1cnn(-c2ccc(Cl)cc2)c1` (stereo not drawn) [Compound No. 17], with 100%; and `CCCSP(=O)(OCC)Oc1cn(-c2ccccc2)nc1C(=O)OCC` (stereo not drawn) [compound 7], with 100%; and `CCCSP(=S)(OCC)Oc1cn(-c2ccccc2)nc1C(=O)OCC` (stereo not drawn) [compound 8], with 100%.
`CCCSP(=S)(OCC)Oc1cnn(-c2ccc(Br)cc2)c1` (stereo not drawn) [compound 10]: the mortality at 500 ppm came to 100%.
`CCCSP(=O)(OCC)Oc1cnn(-c2cccc(Cl)c2)c1` (stereo not drawn) [compound 13] came in with a mortality at 500 ppm of 100%.
Regarding `CCCSP(=S)(OCC)Oc1cnn(-c2cccc(Cl)c2)c1` (stereo not drawn) [compound 14], the mortality at 500 ppm came out at 100%.
`CCCSP(=O)(OCC)Oc1cnn(-c2ccc(F)cc2)c1` (stereo not drawn) [compound 18]: the mortality at 500 ppm was determined as 100%.
In turn, `CCCSP(=S)(OCC)Oc1cnn(-c2ccc(F)cc2)c1` (stereo not drawn) [compound 19] displayed a mortality at 500 ppm of 100%.

Test system in another data set: not listed separately
As to the kind of experiment: Oral acute toxicity in mice (Toxicological Test). The note with it: mouse, in vivo, five-week aged ddY-SLC strained male mice. The text has this:
Below tabulated are the oral acute toxicity values obtained with five-week aged, ddY-SLC strained male mice: […]
`CCCSP(=S)(OCC)Oc1cnn(-c2ccccc2)c1` (stereo not drawn) [Compound No. 5, O-ethyl-O-(1-phenylpyrazol-4-yl)-S-n-propyl phosphorothiolothionate] came in with an LD50 above 300 mg/kg.
On the same count and under the same terms, then `CCCSP(=O)(OCC)Oc1cnn(-c2ccc(Br)cc2)c1` (stereo not drawn) [Compound No. 9], with above 300 mg/kg; and `CCCSP(=O)(OCC)Oc1cnn(-c2ccc(Cl)cc2)c1` (stereo not drawn) [Compound No. 16, O-ethyl-O-[1-(4-chlorophenyl)pyrazol-4-yl]-S-n-propyl phosphorothiolate], with above 300 mg/kg.
For the molecule `CCCSP(=S)(OCC)Oc1cnn(-c2ccc(Cl)cc2)c1` (stereo not drawn) [Compound No. 17], the LD50 is above 300 mg/kg.
On the same count and under the same terms, then `CCCSP(=O)(OCC)Oc1cn(-c2ccccc2)nc1C(=O)OCC` (stereo not drawn) [compound 7], with above 300 mg/kg; and `CCCSP(=S)(OCC)Oc1cn(-c2ccccc2)nc1C(=O)OCC` (stereo not drawn) [compound 8], with above 300 mg/kg.
With `CCCSP(=S)(OCC)Oc1cnn(-c2ccc(Br)cc2)c1` (stereo not drawn) [compound 10], the LD50 was above 300 mg/kg.
`CCOP(=S)(OCC)Oc1cnn(-c2ccccc2Cl)c1` [compound 11] had an LD50 above 300 mg/kg.
`CCCSP(=O)(OCC)Oc1cnn(-c2cccc(Cl)c2)c1` (stereo not drawn) [compound 13] had an LD50 above 300 mg/kg.
In turn, `CCCSP(=S)(OCC)Oc1cnn(-c2cccc(Cl)c2)c1` (stereo not drawn) [compound 14] gave an LD50 above 300 mg/kg.
As to `CCOP(=S)(OCC)Oc1cnn(-c2ccc(Cl)cc2)c1` [compound 15], the LD50 was above 300 mg/kg.
`CCCSP(=O)(OCC)Oc1cnn(-c2ccc(F)cc2)c1` (stereo not drawn) [compound 18] came in with an LD50 above 300 mg/kg.
Regarding `CCCSP(=S)(OCC)Oc1cnn(-c2ccc(F)cc2)c1` (stereo not drawn) [compound 19], the LD50 is above 300 mg/kg.

A further data set concerns Laodelphax striatellus. Kind of data set: Effectiveness against Laodelphax striatellus, adults, dust on paddy-rice plant (Testing Example 1 (b)). The data set is classed as in vivo. To be noted: small brown planthopper, adults on dusted rice, 24 h. The protocol:
(§1) Testing Example 1: Effectiveness against Laodelphax striatellus
(b) A test compound was processed into a dust preparation in accordance with the formulation of Example 8, and […] of the preparation was dusted on the potted paddy-rice plant (1/5,000 a) by the Berger Duster method. After dusting, leaves (15 cm long) of the paddy rice were cut off and were placed in a test tube containing 1 ml of water in the bottom, and ten adults of Laodelphax striatellus were released therein. After allowing the test tube to stand in the room (28° C.) for 24 hours, the dead insects were counted.
For the molecule `CCCSP(=O)(OCC)Oc1cnn(-c2ccc(Br)cc2)c1` (stereo not drawn) [Compound No. 9], the “Mortality (II)” value amounted to 75%.
In the case of `CCCSP(=O)(OCC)Oc1cnn(-c2ccc(Cl)cc2)c1` (stereo not drawn) [Compound No. 16, O-ethyl-O-[1-(4-chlorophenyl)pyrazol-4-yl]-S-n-propyl phosphorothiolate], the “Mortality (II)” value came out at 75%.
For `CCCSP(=S)(OCC)Oc1cnn(-c2ccc(Cl)cc2)c1` (stereo not drawn) [Compound No. 17], the “Mortality (II)” value was found to be 35%.
As to `CCCSP(=O)(OCC)Oc1cnn(-c2cccc(Cl)c2)c1` (stereo not drawn) [compound 13], the “Mortality (II)” value was found to be 90%.
Take `CCCSP(=O)(OCC)Oc1cnn(-c2ccc(F)cc2)c1` (stereo not drawn) [compound 18]: the “Mortality (II)” value was 100%.

The test system of another data set is Laodelphax striatellus. As to the kind of experiment: Effectiveness against Laodelphax striatellus, third-instar larvae, root dip (Testing Example 1 (a)). The class given is in vivo. The note with it: 40 ppm emulsifiable concentrate dilution, root dip 2 hours, 28° C., 24 hours, read-out: Mortality (I). How it is done: as §1
(a) A test compound was processed into an emulsifiable concentrate in accordance with the formulation of Example 6, followed by diluting with water to prepare a treating solution of a 40 ppm concentration. 2.5 ml of the treating solution was placed into a test tube (with 1.7 cm of diameter, 4 cm deep), in which three seedlings of a paddy-rice plant (on the 7th day after germination) were allowed to stand so their root portions were dipped into the solution for 2 hours. The seedlings were then transferred into a test tube having 1 ml water placed in the bottom, and ten third-instar larvae of Laodelphax striatellus were released. After allowing the test tube to stand in the room (28° C.) for 24 hours, the dead larvae were counted. The test is repeated twice, and the test results are tabulated, in terms of mortality, in Table 2 (I).
Turning to `CCCSP(=O)(OCC)Oc1cnn(-c2ccc(Br)cc2)c1` (stereo not drawn) [Compound No. 9], the mortality at 40 µg/mL was determined as 100%.
Take `CCCSP(=O)(OCC)Oc1cnn(-c2ccc(Cl)cc2)c1` (stereo not drawn) [Compound No. 16, O-ethyl-O-[1-(4-chlorophenyl)pyrazol-4-yl]-S-n-propyl phosphorothiolate]: the mortality at 40 µg/mL was determined as 97%.
As to `CCCSP(=S)(OCC)Oc1cnn(-c2ccc(Cl)cc2)c1` (stereo not drawn) [Compound No. 17], the mortality at 40 µg/mL came out at 100%.
For `CCCSP(=O)(OCC)Oc1cnn(-c2cccc(Cl)c2)c1` (stereo not drawn) [compound 13], the mortality at 40 µg/mL amounted to 100%.
Same read-out and setting: next, `CCCSP(=O)(OCC)Oc1cnn(-c2ccc(F)cc2)c1` (stereo not drawn) [compound 18]: 100%.
